According to publication PMC8840173 (Molecules, 2022):
Values after ≈ are worked out from the molar mass of the structure shown. Like-named read-outs stand apart in the source and are kept apart here.

Tests used:
[1] = test system: healthy and infected hamsters; settings: cited from earlier work
[2] = test system: LPS-induced production of NO and PGE2; parameters: method as in PMID 21771629; settings: dose-dependent; cited from earlier work
[3] = parameters: method as in earlier work; settings: antioxidant activity; cited from earlier work
[4] = physchem; format: physicochemical; settings: for light transmittance of the diluted solution: 1 h, 1.82 mM
Procedure: All the metabolites obtained during this study were more polar than their parent compound (−)-α-bisabolol (1) and proposed to have higher aqueous solubility. In order to confirm the improvement in solubility, a modified kinetic solubility test was carried out using the stock solutions of compounds 1–12 (20 mM in dimethyl sulfoxide). […] This was confirmed by measuring the light transmittance of the diluted solutions.
The solubility of compounds 1–12 was evaluated by the modified kinetic solubility assay. Compounds 1–12 were dissolved in dimethyl sulfoxide (DMSO) to yield 20 mM stock solutions, then 10 μL of the compound stock solution was diluted with 100 μL water. After all the solutions were prepared, the vials were placed under room temperature and allowed to mix for 1 h. After this, the light transmittance was measured at a scan width of 5 nm over the range of 390 to 650 nm using a SpectraMax 190 Microplate reader (Molecular Devices, Sunnyvale, CA, USA). After centrifugation, the supernatant was analyzed by HPLC under 200 nm using a Zorbax SB-CN (250 × 10 mm) column with 60% methanol as mobile phase at a flow rate of 2 mL/min.

[5] = test system: promastigotes; parameters: method as in PMID 25448354, PMID 27616730; settings: in vitro, cited from earlier work
[6] = parameters: method as in PMID 24894548; settings: cited from earlier work
[7] = target: butyryl cholinesterase; parameters: method as in PMID 23046385; settings: read-out: inhibitory activity against butyryl cholinesterase IC50; cited from earlier work
[8] = test system: lung cancer cell line A549; settings: cited from earlier work

## CC(C)=CCC[C@](C)(O)[C@@H]1CC=C(C)CC1 [Compound 1, (−)-α-Bisabolol]
[1]
  toxicity or side effects after administration: did not lead to the appearance of toxicity or side effects
[2]
  effect on LPS-induced production of NO and PGE2: significantly reduce
[3]
  IC50 for DPPH radical scavenging ability: 43880 µg/mL
[4]; 10 μL of 20 mM DMSO stock diluted with 100 μL water
  appearance after dilution (turbidity / precipitates): White turbidity
[4]
  light transmittance of the diluted solution: less than 50%
[4]; aqueous with cosolvent or surfactant or cyclodextrin, kinetic from dmso stock
  solubility at 1 h: 260 µM (≈ 57.8 µg/mL)
[5]; 24 h
  antileishmanial activity IC50: 8.07 µg/mL
[5]; 48 h
  antileishmanial activity IC50: 4.26 µg/mL
[6]
  effect on TPA-induced ear thickness and histopathological damage in the ear tissue: significantly inhibited

## C=C1CC[C@H]2O[C@]2(C)CC[C@@H]2[C@@H]1CC2(C)C [caryophyllene oxide]
[7]
  IC50: 208 µM

## CC(C)=CCC[C@](C)(O)[C@@H]1CC=C(CO)CC1 [Compound 11, 15-hydroxy-α-bisabolol]
[4]
  light transmittance of the diluted solution: 90%

## CC(C)=CCC[C@](C)(O)[C@@H]1CC=C(C)[C@H](O)C1 [Compound 2, (1R,5R,7S)-5-hydroxy-α-bisabolol]
[4]
  light transmittance of the diluted solution: 90%

## 14-hydroxymethyl caryophyllene oxide
[7]
  IC50: 10.9 µM

## C=C(CO)C1CCC2=CC(=O)CC(C)C2(C)C1 (centres unmarked) [13-hydroxynootkatone]
[8]
  cytotoxic activity IC50: 36 µg/mL

## CC(C)=CCC[C@](C)(O)[C@H]1CC[C@](C)(O)[C@H](O)C1 [Compound 8, (1S,3R,4S,7S)-3,4-dihydroxy-α-bisabolol]
[4]
  light transmittance of the diluted solution: 90%

## CC1=CC[C@@](O)([C@]2(C)CC[C@@H](C(C)(C)O)O2)CC1 [Compound 5, (1R,7S,10S)-1-hydroxybisabolol oxide B]
[4]
  light transmittance of the diluted solution: 90%

## CC1=CC[C@@H]([C@]2(C)CC[C@H](O)C(C)(C)O2)CC1 [α-Bisabolol oxide A]
[3]
  IC50 for DPPH radical scavenging ability: 1500 µg/mL
